# Patent US5599548A, “Skin care compositions containing fatty acid amides and retinol or retinyl ester” (priority 1995, dated 1997)
# Entries after “also recorded” stand apart in the source; their conditions may differ. Like-named read-outs stand apart in the source and are kept apart here.
# Tests used:
# [1] = tested on: Human keratinocytes; assay: 3H-Thymidine incorporation (keratinocyte proliferation); assay type: cell-based; conditions: for increase of thymidine incorporation/proliferation over ethanol control: retinol 2.5×10^-8 M; for activity at 0.025 µM: 2.5 × 10^-8 M
# Procedure: (§1) Human keratinocytes, isolated from neonatal foreskin by trypsin treatment were grown in Dulbecco Modification Eagle (DME) Hams F12 (1:1) medium/10% fetal calf serum in the presence of irradiated 3T3 mouse fibroblasts for establishing dividing keratinocyte colonies. Cells were grown under the above condition until their second passage and kept frozen for future use. […] On day 7, when the cells were 80-90% confluent, they were trypsinized and plated in the serum-free medium for the various experiments.
# The incorporation of […] by cultured keratinocytes was used as an assay of keratinocyte proliferation. Thymidine is one of four deoxynucleosides which are the monomeric units of DNA, the universal library of genetic information in the animal kingdom. Prior to cell division of a somatic cell such as a keratinocyte, the complete genome of the cell undergoing cell division is replicated. This involves large scale DNA synthesis by the cell and enables both daughter cells to receive identical copies of the genetic material. When ^3 H-thymidine is included in the culture media of keratinocytes which are synthesizing DNA in preparation for cell division then the labelled nucleoside is incorporated into the newly synthesized DNA. The extent of incorporation of ^3 H-thymidine into a population of cells is proportional to the rate of DNA synthesis by this population of cells and therefore an indication of their cellular proliferation.
# Keratinocytes (that were cultured as described above) were plated in 24 well plates at a density of 40,000 cells per well in 1 ml media. After incubation for four days or until the cells were 60-70% confluent, the media was changed. Test compounds were added (in triplicate) to the wells 24 hours after the media change, and four hours later 1μCi^3 H-Thymidine in 50 μl media was added per well. Cells were incubated for a further 24 hours. Media was removed from the cells, 10% ice cold trichloroacetic acid (TCA) added and plates were incubated on ice for 30 minutes. Cells were washed five times with 5% TCA and allowed to dissolve in 500 μl 0.1M NaOH for at least one hour (usually overnight). The preparations were neutralized with 0.1M HCl; 50 μl of the cell preparation was used to determine total protein content. Disintegrations per minute (DPM) from ^3 H labelling of DNA was determined by liquid scintillation counting of […] of the cell preparation. Thymidine incorporation results were expressed as DPM/μg protein.
# [2] = tested on: TGase I (keratinocyte transglutaminase level); assay: Transglutaminase (TGase I) ELISA assay (keratinocyte differentiation); assay type: cell-based, human
# Procedure: as §1
# During the process of terminal differentiation in the epidermis, a 15 nm thick layer of protein, known as the cornified envelope (CE) is formed on the inner surface of the cell periphery. The CE is composed of numerous distinct proteins which have been cross-linked together by the formation of N^ε -(γ-glutamyl) lysine isodipeptide bonds catalyzed by the action of at least two different transglutaminases (TGases) expressed in the epidermis. TGase I is expressed in abundance in the differentiated layers of the epidermis, especially the granular layer, but is absent in the undifferentiated basal epidermis. Thus TGase I is a useful marker of epidermal keratinocyte differentiation with high TGase I levels indicating a more differentiated state. An ELISA based TGase I assay, using a TGase I antibody, was used to assess the state of differentiation of the cultured keratinocytes in the examples that follow.
# Keratinocytes (cultured as described above) were plated in 96 well plates at a density of 3,000 cells per well in 200 μl media. After incubation for four days the media was changed to media containing test compounds (six replicates per test). The cells were cultured for a further 72 hours after which time the media was aspirated and the plates stored at -70° C. Plates were removed from the freezer, and the cells washed with PBS. 100 μl sterile water was added and the cells were freeze fractured by freezing at -70° C. then thawing. The cells were incubated for one hour at room temperature (R/T) with PBS/3% BSA (wash buffer, bovine serum albumin), then rinsed with a fresh aliquot of wash buffer. Cells were incubated with 50 μl of primary antibodies monoclonal anti-human transglutaminase (IgG) obtained from Amersham (mouse) diluted 1:300 in wash buffer for one hour, 37° C. then rinsed two times with wash buffer. Cells were then incubated with 50 μl of secondary antibody (Feb fragment, peroxidase conjugated anti-mouse IgG obtaining from Amersham) diluted 1:200 in wash buffer for one hour at 37° C., then rinsed two times with wash buffer. Cells were incubated with substrate solution (4 mg o-phenylene diamine and 3.3 μl 30% H2 O2 in 10 ml 0.1M citrate buffer pH 5.0) for five minutes, R/T, in darkness (under aluminum foil). The reaction was stopped by the addition of 50 μl 4N H2 SO4. The absorbance of samples was read at 492 nm in the plate reader. Out of the six replicates, four were treated with both antibodies, two were treated only with the secondary antibody (i.e., to determine background binding of enzyme conjugated Ab). TGase levels were determined by subtracting background from the readings from each treatment and determining mean ±s.d. for the replicates exposed to both Ab.
# [3] = concentrations as in the respective Example
# [4] = Table 3B, RA, RP 2.5 × 10^-7 M, linoleoyl-DEA 10^-6 M, alone or combined, n = 3
# [5] = Table 4A, RA, retinol 2.5 × 10^-7 M, cocoyl-DEA 10^-7 M, alone or combined, n = 3
# [6] = Table 4B, RA, retinol 2.5 × 10^-8 M, cocoyl-MEA 10^-8 M, alone or combined, n = 3
# [7] = Table 5B, RA, retinol 2.5 × 10^-8 M, methyl linoleate 10^-8 M, alone or combined, n = 3
structure (smiles),measurement,setting,value
"CC1=C(/C=C/C(C)=C/C=C/C(C)=C/C(=O)O)C(C)(C)CCC1 [RA, retinoic acid]",increase of thymidine incorporation/proliferation over ethanol control,"[1]; Example 2A, RA, linoleoyl-DEA 10^-9 M",26%
same,increase of thymidine incorporation/proliferation over ethanol control,"[1]; Example 4C, RA, palmitoyl-MEA 10^-6 M",16%
same,increase of thymidine incorporation/proliferation over ethanol control,"[1]; Example 4D, RA, linoleoyl-MEA 10^-9 M",47%
same,activity at 0.25 µM,"[1]; Homo sapiens, Keratinocyte, 24 h, Table 1A, first RA/ROH pair, 2.5 × 10^-7 M, 24 h, n = 3, read-out: thymidine incorporation, % control",118%
same,activity at 0.25 µM,"[1]; Homo sapiens, Keratinocyte, 24 h, Table 1A, second RA/ROH pair, 2.5 × 10^-7 M, 24 h, n = 3, read-out: thymidine incorporation, % control",128%
same,activity at 0.25 µM,"[1]; Homo sapiens, Keratinocyte, 24 h, Table 1A, third RA/ROH pair, 2.5 × 10^-7 M, 24 h, n = 3, read-out: thymidine incorporation, % control",122%
same,activity at 0.0025 µM,"[1]; Homo sapiens, Keratinocyte, 24 h, Table 3A, RA 2.5 × 10^-9 M, RP 2.5 × 10^-7 M, linoleoyl-DEA 10^-8 M, alone or combined, n = 3, read-out: thymidine incorporation, % control",117%
same,activity at 0.25 µM,"[1]; Homo sapiens, Keratinocyte, 24 h, Table 7A, 2.5 × 10^-7 M, 24 h, n = 9, read-out: mean Thymidine incorp/μg protein ± s.d",113 ± 10.9%
same,activity at 0.25 µM,"[1]; Homo sapiens, Keratinocyte, 24 h, Table 7A, 2.5 × 10^-7 M, 24 h, n = 9, read-out: thymidine incorporation, % control",113%
same,activity at 0.025 µM,"[1]; Homo sapiens, Keratinocyte, 24 h, Table 7A, 24 h, n = 9, read-out: mean Thymidine incorp/μg protein ± s.d",125 ± 13.9%
same,activity at 0.025 µM,"[1]; Homo sapiens, Keratinocyte, 24 h, Table 7A, 24 h, n = 9, read-out: thymidine incorporation, % control",126%
same,activity at 0.0025 µM,"[1]; Homo sapiens, Keratinocyte, 24 h, Table 7A, 2.5 × 10^-9 M, 24 h, n = 9, read-out: mean Thymidine incorp/μg protein ± s.d",121 ± 12.8%
same,activity at 0.0025 µM,"[1]; Homo sapiens, Keratinocyte, 24 h, Table 7A, 2.5 × 10^-9 M, 24 h, n = 9, read-out: thymidine incorporation, % control",121%
same,activation at 0.0025 µM,"[1]; Homo sapiens, Keratinocyte, read-out: increase of thymidine incorporation/proliferation over ethanol control",17%
same,mean Thymidine incorp./μg protein ± s.d,"[1]; Table 1A, first RA/ROH pair, 2.5 × 10^-7 M, 24 h, n = 3",2475 ± 116 DPM/μg protein
same,mean Thymidine incorp./μg protein ± s.d,"[1]; Table 1A, second RA/ROH pair, 2.5 × 10^-7 M, 24 h, n = 3",2686 ± 72 DPM/μg protein
same,mean Thymidine incorp./μg protein ± s.d,"[1]; Table 1A, third RA/ROH pair, 2.5 × 10^-7 M, 24 h, n = 3",2556 ± 80 DPM/μg protein
same,mean Thymidine incorp./μg protein ± s.d,"[1]; Table 2A, RA, ROH 2.5 × 10^-8 M, linoleoyl-DEA 10^-9 M, alone or combined, 24 h, normalized to ethanol control, n = 9",1.255 ± 0.139
same,mean Thymidine incorp./μg protein ± s.d,"[1]; Table 3A, RA 2.5 × 10^-9 M, RP 2.5 × 10^-7 M, linoleoyl-DEA 10^-8 M, alone or combined, n = 3",1990 ± 61 DPM/μg protein
same,mean Thymidine incorp./μg protein ± s.d,"[1]; Table 4C, RA, retinol 2.5 × 10^-8 M, palmitoyl-MEA 10^-6 M, alone or combined, control = 1.000, n = 3",1.164 ± 0.113
same,"thymidine incorporation, % control","[1]; Table 4C, RA, retinol 2.5 × 10^-8 M, palmitoyl-MEA 10^-6 M, alone or combined, n = 3, 1440 min",116%
same,"thymidine incorporation, % control","[1]; Table 4D, RA, ROH 2.5 × 10^-8 M, linoleoyl-MEA 10^-9 M, alone or combined, 24 h, n = 3",147%
same,mean Thymidine incorp./μg protein ± s.d,"[1]; Table 4D, RA, ROH 2.5 × 10^-8 M, linoleoyl-MEA 10^-9 M, alone or combined, 24 h, normalized to ethanol control, n = 3",1.47 ± 0.36
same,"effect on keratinocyte proliferation, in words",[1]; [3],significantly increased keratinocyte proliferation; also recorded: increased thymidine incorporation
same,activity at 0.25 µM,"[2]; Homo sapiens, Keratinocyte, 72 h, Table 1B, 2.5 × 10^-7 M, 72 h, n = 3, read-out: Transglutaminase level, % control",20%
same,activity at 0.025 µM,"[2]; Homo sapiens, Keratinocyte, 72 h, Table 1B, 2.5 × 10^-8 M, 72 h, n = 3, read-out: Transglutaminase level, % control",62%
same,activity at 0.0025 µM,"[2]; Homo sapiens, Keratinocyte, 72 h, Table 1B, 2.5 × 10^-9 M, 72 h, n = 3, read-out: Transglutaminase level, % control",84%
same,activity at 1 µM,"[2]; Homo sapiens, Keratinocyte, Table 5A, RA, retinol 2.5 × 10^-7 M, linoleic acid 10^-6 M, alone or combined, n = 3, read-out: TGase (TG1) level, % control",0%
same,activity at 0.25 µM,"[2]; Homo sapiens, Keratinocyte, Table 8A, 2.5 × 10^-7 M, n = 3, read-out: TGase, % control",34%
same,activity at 0.025 µM,"[2]; Homo sapiens, Keratinocyte, Table 8A, 2.5 × 10^-8 M, n = 3, read-out: TGase, % control",64%
same,activity at 0.0025 µM,"[2]; Homo sapiens, Keratinocyte, Table 8A, 2.5 × 10^-9 M, n = 3, read-out: TGase, % control",87%
same,activity at 0.25 µM,"[2]; Homo sapiens, Keratinocyte, Table 8B, 2.5 × 10^-7 M, n = 3, read-out: TGase, % control",12%
same,mean Transglutaminase ELISA level ± s.d,"[2]; Table 1B, 2.5 × 10^-7 M, 72 h, n = 3",0.088 ± 0.015
same,mean Transglutaminase ELISA level ± s.d,"[2]; Table 1B, 2.5 × 10^-8 M, 72 h, n = 3",0.268 ± 0.068
same,mean Transglutaminase ELISA level ± s.d,"[2]; Table 1B, 2.5 × 10^-9 M, 72 h, n = 3",0.360 ± 0.067
same,"TGase (TG1) level, % control","[2]; Table 2B, RA, ROH 2.5 × 10^-7 M, linoleoyl-DEA 10^-6 M, alone or combined, 72 h, n = 9",28%
same,mean TGase ± s.d,"[2]; Table 2B, RA, ROH 2.5 × 10^-7 M, linoleoyl-DEA 10^-6 M, alone or combined, 72 h, normalized to ethanol control, n = 9",0.283 ± 0.470
same,"TGase (TG1) level, % control",[2]; [4],33%
same,mean TGase ± s.d,[2]; [4],0.073 ± 0.022
same,"TGase (TG1) level, % control",[2]; [5],33%
same,mean TGase ± s.d,[2]; [5],0.058 ± 0.098
same,"TGase (TG1) level, % control",[2]; [6],29%
same,mean TGase ± s.d,[2]; [6],0.036 ± 0.009
same,mean TGase ± s.d,"[2]; Table 5A, RA, retinol 2.5 × 10^-7 M, linoleic acid 10^-6 M, alone or combined, n = 3",-0.004 ± 0.103
same,"TGase (TG1) level, % control",[2]; [7],32%
same,mean TGase ± s.d,[2]; [7],0.092 ± 0.030
same,mean TGase level ± s.d,"[2]; Table 6A (Effect on Keratinocyte TGase), RA, ROH 2.5 × 10^-7 M, formamide 10^-7 M, alone or combined, 72 h, n = 3",0.137 ± 0.024
same,"TGase (TG1) level, % control","[2]; Table 6A, RA, ROH 2.5 × 10^-7 M, formamide 10^-7 M, alone or combined, 72 h, n = 3",28%
same,mean TGase level ± s.d,"[2]; Table 6B (Effect on Keratinocyte TGase), RA, ROH 2.5 × 10^-7 M, acetamide 10^-7 M, alone or combined, 72 h, n = 3",0.226 ± 0.069
same,"TGase (TG1) level, % control","[2]; Table 6B, RA, ROH 2.5 × 10^-7 M, acetamide 10^-7 M, alone or combined, 72 h, n = 3",46%
same,mean TGase level ± s.d,"[2]; Table 6C (Effect on Keratinocyte TGase), RA, ROH 2.5 × 10^-7 M, pentanoyl-DEA 10^-7 M, alone or combined, 72 h, n = 3",0.088 ± 0.015
same,mean TGase ± s.d,"[2]; Table 8A, 2.5 × 10^-7 M, n = 3",0.073 ± 0.022
same,mean TGase ± s.d,"[2]; Table 8A, 2.5 × 10^-8 M, n = 3",0.138 ± 0.034
same,mean TGase ± s.d,"[2]; Table 8A, 2.5 × 10^-9 M, n = 3",0.190 ± 0.091
same,mean TGase ± s.d,"[2]; Table 8B, 2.5 × 10^-7 M, n = 3",0.015 ± 0.025
same,"effect on keratinocyte TG1 levels / differentiation, in words",[2]; [3],decreased keratinocyte differentiation; also recorded: repressed keratinocyte TG 1 levels completely; also recorded: significantly decreased keratinocyte TGase levels; also recorded: decreased transglutaminase I levels
